# Laboratory results: patent US4994376A, “Detection of bacteroides gingivalis” (priority 1987, dated 1991)
# Like-named read-outs stand apart in the source and are kept apart here. Peptide text beside a SMILES is read from it. * marks the point of attachment. βNA = c1ccc2cc(N*)ccc2c1
# Tests used:
# Assay type in all cases: biochemical
# "Anaerobic vibrio" = conditions: strain SN2T2; β-naphthylamine liberated after 60 minutes, 37° C.
# Procedure, shortened: (§1)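 Chromogenic assay using N-CBz-glycyl-glycyl-L-arginine-β-naphthylamide, incubated 1 hour at 37° C. Liberated β-naphthylamine is coupled with Fast Garnet GBC (0.5 mg/ml) in 1M acetic acid pH 4.2 with 10% Tween 20 for 15 min at room temperature, then read at 525 nm.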
# [1] = system: Actinobacillus actinomycetemcomitans; conditions: β-naphthylamine liberated after 60 minutes, 37° C.
# Procedure, shortened: as §1
# Campylobacter sputorum = conditions: strain Ba1-21; β-naphthylamine liberated after 60 minutes, 37° C.
# Procedure, shortened: as §1
# Eikenella corrodens = conditions: strain BP1-6; β-naphthylamine liberated after 60 minutes, 37° C.
# Procedure, shortened: as §1
# Streptococcus mitis = conditions: β-naphthylamine liberated after 60 minutes, 37° C.
# Procedure, shortened: as §1
# Veillonella alcalesens = assay: Aminopeptidase activity on β-naphthylamide substrates; conditions: strain ATCC 11748; β-naphthylamine liberated after 60 minutes, 37° C.
# Procedure, shortened: as §1
SMILES,"Aminopeptidase activity (""Anaerobic vibrio"")",Aminopeptidase activity ([1]; strain 67),Aminopeptidase activity ([1]; strain 75),Aminopeptidase activity ([1]; strain ATCC 29523),Aminopeptidase activity ([1]; strain NCTC 9709),Aminopeptidase activity ([1]; strain Y4),Aminopeptidase activity (Campylobacter sputorum),Aminopeptidase activity (Eikenella corrodens),Aminopeptidase activity (Streptococcus mitis; strain ATCC 9815),Aminopeptidase activity (Streptococcus mitis; strain ATCC 15909),Aminopeptidase activity (Streptococcus mitis; strain ATCC 15911),Aminopeptidase activity (Streptococcus mitis; strain ATCC 15912),Aminopeptidase activity (Veillonella alcalesens)
CSCCC(N)C(=O)Nc1ccc2ccccc2c1 (racemic),0 nmol,0 nmol,0 nmol,1 nmol,0 nmol,0 nmol,0 nmol,3 nmol,52 nmol,12 nmol,13 nmol,17 nmol,0 nmol
C[C@H](N)C(=O)N[C@@H](C)C(=O)N[C@@H](Cc1ccccc1)C(=O)Nc1ccc2ccccc2c1 [Ala-Ala-Phe] (H-Ala-Ala-Phe-βNA),0 nmol,3 nmol,1 nmol,0 nmol,1 nmol,0 nmol,0 nmol,0 nmol,3 nmol,1 nmol,0 nmol,0 nmol,1 nmol
CC(C)C[C@H](NC(=O)[C@@H]1CCCN1C(=O)CN)C(=O)Nc1ccc2ccccc2c1 [Gly-Pro-Leu] (H-Gly-Pro-Leu-βNA),0 nmol,1 nmol,1 nmol,0 nmol,0 nmol,0 nmol,2 nmol,0 nmol,27 nmol,7 nmol,–,11 nmol,0 nmol
"CC(C)C[C@H](N)C(=O)NCC(=O)O [Leu-Gly, Leucyl-glycine] (H-Leu-Gly-OH)",0 nmol,2 nmol,0 nmol,0 nmol,0 nmol,0 nmol,0 nmol,0 nmol,0 nmol,0 nmol,124 nmol,0 nmol,–
"Cl.N=C(N)NCCC[C@H](NC(=O)CNC(=O)CNC(=O)OCc1ccccc1)C(=O)Nc1ccc2ccccc2c1 [N-CBz-Gly-Gly-Arg, N-carbobenzoxy-glycyl-glycyl-L-arginine-β-naphthylamide hydrochloride]",1 nmol,0 nmol,0 nmol,0 nmol,1 nmol,0 nmol,0 nmol,0 nmol,0 nmol,0 nmol,–,0 nmol,0 nmol
"NC(=O)[C@@H](N)CCC(=O)O [α-Glu, α -glutamine]",0 nmol,0 nmol,0 nmol,0 nmol,0 nmol,0 nmol,1 nmol,0 nmol,0 nmol,0 nmol,0 nmol,0 nmol,0 nmol
